{
  "source": "patent US10676440B2",
  "about": "“Crystalline forms of an NK-1 antagonist” (Helsinn Healthcare SA, priority 2014, dated 2020)",
  "key": {"[1]": {"assay": "in vivo", "details": "male, dog, in vivo, iv, 3 mg/kg, mean AUC(0-102 h)", "description": "In Example 10, the pharmacokinetics of the compound of Formula I in dogs following single intravenous and oral administration was evaluated and the oral bioavailability of five different salts of the compound of Formula I was compared. The compound of Formula I was administered to dogs as described in Table 12. The doses are expressed in mg of free base.\nThe experiments were performed in 15 male dogs (bodyweight 11-18 kg) from RCC Ltd., Biotechnology and Animal Breeding Division, Wolferstrasse 4, CH-4414, Fullinsdorf, Switzerland. The animals were housed under standard laboratory conditions throughout the study period.\nFor the pharmacokinetic studies, 1 mL blood samples were collected from the cephalic vein of the dogs via catheter at 15, 30 min and at 1, 2, 3, 4, 6, 8, 24, 32, 48, 56, 72, 80, 96, and 100 (or 104) hours following oral dosing. After intravenous administration, blood samples were collected at 5, 15, 30 min and 1, 2, 3, 4, 6, 8, 24, 32, 48, 56, 75, 102, 120, 128, 144, 152, 168, 176, 192, and 200 hours. Collection tubes contained EDTA/NaF as anticoagulant and stabilizer. After centrifugation, plasma was removed and stored deep frozen at approximately −20° C. until analysis using a specific LC-MS method.\nAliquots of 40 μL plasma were mixed with 50 μL buffer at pH 5, 50 μL internal standard of Formula I (1 μg/mL in 1-chlorobutane) and 250 μL butylacetate and then shaken for 10 min. After centrifugation, 200 μL of the supernatant were evaporated to dryness at 45° C. under a stream of nitrogen. The residue was reconstituted with 200 μL acetonitrile/1% formic acid in water (30/70, v/v). Aliquots of 30 μL were injected onto the analytical column (Waters, Symmetry C8, 2.1×150 mm, 5 μm).\nSeparation occurred by gradient elution using a solvent A (acetonitrile) and solvent B (1% formic acid in water). The flow rate was 0.3 mL/min and the gradient elution was: […]\nThe sample passed to the ion-spray interface of the single quadrupole mass spectrometer. Selected ion monitoring mode (SIM) was used for mass spectrometric detection. Quantification was based on peak area ratios and calibration curve established between 2 and 5000 ng/mL.\nTo a 100 μL sample aliquot were added 200 μL of a mixture of acetonitrile/ethanol containing the deuterated internal standard, to precipitate plasma proteins. After vortex mixing and centrifugation, aliquots of the supernatants were transferred to 96-deel-well plates and injected for analysis (5 μL). Following enrichment and cleanup on the trapping column, the analyte was eluted and separated by gradient elution on a 2.1*30 mm analytical column (XTerra MS C18). The effluent from the analytical column was passed to the turbo ion spray vie a divert valve.\nCalibration standards were prepared in dog plasma. The calibration range was from 10-5000 ng/mL. In each analytical series, a set of calibration standards was worked up and run with the unknowns. Calibration was then performed by computing a weighted (1/X^2) least-squares linear regression line of the measured peak area ratios (Y) (analyte to internal standard) versus the spiked concentrations (X). The drug concentrations of the unknown samples were then calculated from this regression line (UNICHROM). The performance of the analytical procedure during sample analysis was monitored. With each analytical series, quality control (QC) samples in dog plasma, spiked with known amounts of the analyte, were run together with the study samples.\nThe pharmacokinetic parameters were estimated by non-compartmental analysis, using the pharmacokinetic evaluation program WinNOnlin [1]. AUC(0-inf.) was calculated applying the linear trapezoidal rule and extrapolation to infinity using the apparent elimination rate constant kz and the calculated concentration at the last measurable time point. AUClast values were calculated by linear trapezoidal rule from time zero to time of last measureable time point."}, "[2]": {"tested_on": "rat plasma proteins", "assay": "Binding to rat plasma proteins", "assay_type": "in vitro ADME"}, "[3]": {"assay": "Pilot whole body autoradiography study in rats", "assay_type": "in vivo"}},
  "data": [
    {"compound": "Cc1ccccc1-c1cc(N2CCN(C)CC2)ncc1N(C)C(=O)C(C)(C)c1cc(C(F)(F)F)cc(C(F)(F)F)c1", "note": "[Formula I, 2-(3,5-bis(trifluoromethyl)phenyl)-N,2-dimethyl-N-(6-(4-methylpiperazin-1-yl)-4-(o-tolyl)pyridin-3-yl)propanamide]", "values": [
      {"measurement": "AUC(0-t)", "setting": "[1]", "result": 11800, "unit": "ng·h/mL"},
      {"measurement": "binding to rat plasma proteins", "setting": "[2]", "result": 99.8, "unit": "%"},
      {"measurement": "distribution and elimination of the labeled compound and/or metabolites", "setting": "[3]", "result": "extensive distribution of the labeled compound and/or metabolites as well as a very slow elimination from the body"}
    ]}
  ]
}
